Measurements published in PubChem BioAssay (NCI).
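Each compound was tested at five concentrations against cells in 96-well plates for 48 hours. Here, GI50 denotes the concentration required for 50% inhibition of growth. TGI: total growth inhibition.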

Experiments:
Test in all cases: inhibition of tumour cell growth, NCI panel, 48 h
UACC-257 melanoma = system: UACC-257 melanoma
NCI-H23 lung = system: NCI-H23 lung
M14 melanoma = system: M14 melanoma
SF-295 CNS = system: SF-295 CNS
UACC-62 melanoma = system: UACC-62 melanoma
HOP-92 NSCLC = system: HOP-92 NSCLC
MALME-3M melanoma = system: MALME-3M melanoma
SN12C renal = system: SN12C renal
MDA-MB-231 breast = system: MDA-MB-231 breast
HL-60(TB) leukemia = system: HL-60(TB) leukemia
OVCAR-5 ovarian = system: OVCAR-5 ovarian
PC-3 prostate = system: PC-3 prostate
HCC-2998 colon = system: HCC-2998 colon
DU-145 prostate = system: DU-145 prostate
SK-MEL-2 melanoma = system: SK-MEL-2 melanoma
BT-549 breast = system: BT-549 breast
A498 renal = system: A498 renal

## N=C(N)c1ccc(-c2ccc(-c3ccccc3)s2)s1
UACC-257 melanoma
  GI50: 156 nM
  TGI: 2310 nM
NCI-H23 lung
  GI50: < 10 nM
  TGI: 1370 nM
M14 melanoma
  GI50: < 10 nM
  TGI: 15.5 nM
SF-295 CNS
  GI50: 32.1 nM
  TGI: 273 nM
UACC-62 melanoma
  GI50: 15.6 nM
  TGI: 1300 nM
HOP-92 NSCLC
  GI50: 65.5 nM
  TGI: 2170 nM
MALME-3M melanoma
  GI50: 1170 nM
  TGI: 2590 nM
SN12C renal
  GI50: 156 nM
  TGI: 1950 nM
MDA-MB-231 breast
  GI50: 753 nM
  TGI: 2500 nM
HL-60(TB) leukemia
  GI50: 28.7 nM
  TGI: 1430 nM
OVCAR-5 ovarian
  GI50: 374 nM
  TGI: 2450 nM
PC-3 prostate
  GI50: 249 nM
  TGI: 2030 nM
HCC-2998 colon
  GI50: 1050 nM
  TGI: 2360 nM
DU-145 prostate
  GI50: < 10 nM
  TGI: 1100 nM
SK-MEL-2 melanoma
  GI50: 1760 nM
  TGI: 3380 nM
BT-549 breast
  GI50: 26.7 nM
  TGI: 2000 nM
A498 renal
  GI50: < 10 nM
  TGI: 1340 nM
